According to patent US12358907B2, “Substituted pyrrolidine amides III” (GRÜNENTHAL GMBH, priority 2019, dated 2025):
pIC50: −log10 of the molar value.

Each compound was assayed against glucocorticoid receptor (GAL4 DBD-GR) (Homo sapiens (Human), UniProt P04150) (assay: GR cell-based assays (GRE agonist / GRE antagonist), CHO-Gal4/GR luciferase reporter). Conditions: read-out: IC50 or EC50.
Excerpt: Potential selective glucocorticoid receptor modulators of this intervention can be tested for modulation of the activity of the glucocorticoid receptor using cell-based assays. These assays involve a Chinese hamster ovary (CHO) cell line which contains fragments of the glucocorticoid receptor as well as fusion proteins. The glucocorticoid receptor fragments used are capable of binding the ligand (e.g. beclomethasone) to identify molecules that compete for binding with glucocorticoid receptor ligands. In more detail, the glucocorticoid receptor ligand binding domain is fused to the DNA binding domain (DBD) of the transcription factor GAL4 (GAL4 DBD-GR) and is stably integrated into a CHO cell line containing a GAL4-UAS-Luciferase reporter construct. […] After cell lysis the luminescence that is produced by luciferase after addition of the substrate is detected and EC50 or IC50 values can be calcuated. Engagement of molecules which induce gene expression via glucocortocoid receptor binding to the DNA leads to expression of the luciferase gene under the control of the fusion protein GAL4 DBD-GR and therefore to a dose-dependent increase of the luminescence signal. Binding of molecules which repress beclomethasone-induced gene expression of the luciferase gene under the control of the fusion protein GAL4 DBD-GR leads to a dose-dependent reduction of the luminescence signal.
The reporter cell line CHO-Gal4/GR consisted of a chinese hamster ovary (CHO) cell line (Leibniz Institute DSMZ—German Collection of Microorganisms and Cell Cultures GmbH: ACC-110) containing a firefly luciferase gene under the control of the GR ligand binding domain fused to the DNA binding domain (DBD) of GAL4 (GAL4 DBD-GR) stably integrated into CHO cells. This cell line was established by stable transfection of CHO cells with a GAL4-UAS-Luciferase reporter construct. In a subsequent step the ligand binding domain of the GR cloned into pIRES2-EGFP-GAL4 containing the DNA binding domain of GAL4 from pFA-AT2 was transfected. This fusion construct activated firefly luciferase expression under the control of a multimerized GAL4 upstream activation sequence (UAS). The signal of the emitted luminescence was recorded by the FLIPR^TETRA. This allowed for specific detection of ligand-induced activation of the GR and therefore for the identification of compounds with agonistic properties. The GAL4/UAS reporter was premixed with a vector that constitutively expressed Renilla luciferase, which served as an internal positive control for transfection efficiency.
The complete culture medium for the assay was: • DMEM F-12 (1:1) MIXTURE (LONZA cat. No: BE04-687F/U1) 500 mL • 5 mL of 100 mM Sodium Pyruvate (LONZA cat. No: BE12-115E) • 25 mL of 7.5% Sodium Bicarbonate (LONZA cat. No BE17-613E) • 6.5 mL of 1 M Hepes (LONZA cat. No: BE17-737E) • 5 mL of 100× Penicillin/Streptomycin (LONZA cat. No DE17-602E) • 50 mL of Fetal Bovine Serum (Euroclone cat. No ECS 0180L) • 0.25 mL of 10 mg/mL Puromycin (InvivoGen cat.: ant-pr-1) • 0.5 mL of 100 mg/mL Zeocin (InvivoGen cat.: ant-zn-1)
Cryo-preserved CHO-Gal4/GR cells were suspended in complete medium and 5000 cells/25 μl/well were seeded into the wells of 384-well polystyrene assay plates (Thermo Scientific, cat. #4332) and cultured at 37° C., 5% CO2 and 95% humidity. After 24 hours growth medium was carefully removed and replaced by 30 μl Opti-MEM (GIBCO, cat. #31985062) as assay buffer. To test the compounds an 8-point half-log compound dilution curve was generated in 100% DMSO starting from a 2 mM stock and compounds were then diluted 1:50 in Opti-MEM. 10 μl of compounds were then added to the wells containing 30 μl Opti-MEM resulting in a final assay concentration range from 10 μM to 0.003 μM in 0.5% DMSO. Compounds were tested at 8 concentrations in quadruplicate data points. […] Finally, cells were lysed with 20 μl of Triton/Luciferin solution and the signal of the emitted luminescence was recorded at the FLIPR^TETRA for 2 minutes. […]

Chain of glucocorticoid receptor (GAL4 DBD-GR) (P04150 524-758): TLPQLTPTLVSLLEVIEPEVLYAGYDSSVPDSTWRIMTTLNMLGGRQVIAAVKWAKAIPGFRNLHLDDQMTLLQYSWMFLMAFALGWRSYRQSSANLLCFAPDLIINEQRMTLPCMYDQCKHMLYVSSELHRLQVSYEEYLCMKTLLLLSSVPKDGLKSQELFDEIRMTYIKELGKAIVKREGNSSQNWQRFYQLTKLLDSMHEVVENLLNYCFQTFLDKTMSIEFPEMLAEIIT

Compound | pIC50
C[C@@H]1C(=O)N(c2ccc3c(cnn3-c3ccc(F)cc3)c2)[C@H](c2ccccc2Cl)[C@H]1NS(C)(=O)=O (racemic) [Example 93, N-[rac-(2R,3S,4S)-2-(2-Chlorophenyl)-1-[1-(4-fluorophenyl)-1H-indazol-5-yl]-4-methyl-5-oxo-pyrrolidin-3-yl]-methanesulfonic acid amide] | > 7.00
COc1ccc([C@@H]2[C@@H](NC(=O)C(C)(F)F)[C@H](C)C(=O)N2c2ccc3c(cnn3-c3ccc(F)cc3)c2)cc1 (racemic) [Example 98, 2,2-Difluoro-N-[rac-(2R,3S,4S)-1-[1-(4-fluorophenyl)-1H-indazol-5-yl]-2-(4-methoxyphenyl)-4-methyl-5-oxo-pyrrolidin-3-yl]-propionamide] | > 7.00
CC(F)(F)C(=O)N[C@H]1CC(=O)N(c2ccc3c(cnn3-c3ccc(F)cc3)c2)[C@]1(C)c1ccccc1 (racemic) [Example 100, 2,2-Difluoro-N-[rac-(2R,3S)-1-[1-(4-fluorophenyl)-1H-indazol-5-yl]-2-methyl-5-oxo-2-phenyl-pyrrolidin-3-yl]-propionamide] | > 7.00
C[C@@]1(c2ccccc2)[C@@H](NC(=O)C2CC2)CC(=O)N1c1ccc2c(cnn2-c2ccc(F)cc2)c1 (racemic) [Example 101, N-[rac-(2R,3S)-1-[1-(4-Fluorophenyl)-1H-indazol-5-yl]-2-methyl-5-oxo-2-phenyl-pyrrolidin-3-yl]-cyclopropanecarboxylic acid amide] | 6.00 to 7.00
C[C@@H]1C(=O)N(c2ccc3c(cnn3-c3ccc(F)cc3)c2)[C@H](c2ccc(Cl)s2)[C@H]1NC(=O)C1CC1 (racemic) [Example 108, N-[rac-(2S,3S,4S)-2-(5-Chloro-thiophen-2-yl)-1-[1-(4-fluorophenyl)-1H-indazol-5-yl]-4-methyl-5-oxo-pyrrolidin-3-yl]-cyclopropanecarboxylic acid amide] | > 7.00
C[C@@H]1C(=O)N(c2ccc3c(cnn3-c3ccc(F)cc3)c2)[C@H](c2ccc(Cl)s2)[C@H]1NC(=O)c1ncccn1 (racemic) [Example 109, N-[rac-(2S,3S,4S)-2-(5-Chloro-thiophen-2-yl)-1-[1-(4-fluorophenyl)-1H-indazol-5-yl]-4-methyl-5-oxo-pyrrolidin-3-yl]-pyrimidine-2-carboxylic acid amide] | > 7.00
C[C@@H]1C(=O)N(c2ccc3c(cnn3-c3ccc(F)cc3)c2)[C@H](c2ccccc2Cl)[C@H]1NC(=O)C1CC1 (racemic) [Example 112, N-[rac-(2R,3S,4S)-2-(2-Chlorophenyl)-1-[1-(4-fluorophenyl)-1H-indazol-5-yl]-4-methyl-5-oxo-pyrrolidin-3-yl]-cyclopropanecarboxylic acid amide] | 6.00 to 7.00
Cc1ncsc1C(=O)N[C@H]1[C@H](C)C(=O)N(c2ccc3c(cnn3-c3ccc(F)cc3)c2)[C@@H]1c1ccc(Cl)s1 (racemic) [Example 113, N-[rac-(2S,3S,4S)-2-(5-Chloro-thiophen-2-yl)-1-[1-(4-fluorophenyl)-1H-indazol-5-yl]-4-methyl-5-oxo-pyrrolidin-3-yl]-4-methyl-thiazole-5-carboxylic acid amide] | 6.00 to 7.00
C[C@@H]1C(=O)N(c2ccc3c(cnn3-c3ccc(F)cc3)c2)[C@H](c2ccn(C)n2)[C@H]1NC(=O)C(C)(F)F (racemic) [Example 120, 2,2-Difluoro-N-[rac-(2S,3S,4S)-1-[1-(4-fluorophenyl)-1H-indazol-5-yl]-4-methyl-2-(1-methyl-1H-pyrazol-3-yl)-5-oxo-pyrrolidin-3-yl]-propionamide] | 4.82 to 6.00
O=C(N[C@H]1[C@H](CC2CC2)C(=O)N(c2ccc3c(cnn3-c3ccc(F)cc3)c2)[C@@H]1c1ccccc1)C1CC1 (racemic) [Example 121, N-[rac-(2R,3S,4S)-4-(Cyclopropyl-methyl)-1-[1-(4-fluorophenyl)-1H-indazol-5-yl]-5-oxo-2-phenyl-pyrrolidin-3-yl]-cyclopropanecarboxylic acid amide] | > 7.00
C[C@@H]1C(=O)N(c2ccc3c(cnn3-c3ccc(F)cc3)c2)[C@H](c2ccc(Cl)s2)[C@H]1NC(=O)C(C)(F)F (racemic) [Example 123, N-[rac-(2S,3S,4S)-2-(5-Chloro-thiophen-2-yl)-1-[1-(4-fluorophenyl)-1H-indazol-5-yl]-4-methyl-5-oxo-pyrrolidin-3-yl]-2,2-difluoro-propionamide] | > 7.00

Now from value to compound:

pIC50 | Compound
4.82 to 6.00 | CC[C@@H]1[C@@H](NC(=O)c2ncccn2)[C@H](Cc2ccccc2)C(=O)N1c1ccc2c(cnn2-c2ccc(F)cc2)c1 (racemic) [Example 90, N-[rac-(2R,3S,4S)-4-Benzyl-2-ethyl-1-[1-(4-fluorophenyl)-1H-indazol-5-yl]-5-oxo-pyrrolidin-3-yl]-pyrimidine-2-carboxylic acid amide]
4.82 to 6.00 | CC[C@@H]1[C@@H](NS(C)(=O)=O)[C@H](Cc2ccccc2)C(=O)N1c1ccc2c(cnn2-c2ccc(F)cc2)c1 (racemic) [Example 91, N-[rac-(2R,3S,4S)-4-Benzyl-2-ethyl-1-[1-(4-fluorophenyl)-1H-indazol-5-yl]-5-oxo-pyrrolidin-3-yl]-methanesulfonic acid amide]
> 7.00 | C[C@@H]1C(=O)N(c2ccc3c(cnn3-c3ccc(F)cc3)c2)[C@H](c2ccccc2Cl)[C@H]1NC(=O)c1cccnc1 (racemic) [Example 92, N-[rac-(2R,3S,4S)-2-(2-Chlorophenyl)-1-[1-(4-fluorophenyl)-1H-indazol-5-yl]-4-methyl-5-oxo-pyrrolidin-3-yl]-pyridine-3-carboxylic acid amide]
> 7.00 | CC1C(=O)N(c2ccc3c(cnn3-c3ccc(F)cc3)c2)C(c2ccccc2Cl)C1NC(=O)c1ccn(C)n1 (racemic) [Example 94, N-[rac-(2R,3S,4R)-2-(2-Chlorophenyl)-1-[1-(4-fluorophenyl)-1H-indazol-5-yl]-4-methyl-5-oxo-pyrrolidin-3-yl]-1-methyl-1H-pyrazole-3-carboxylic acid amide]
4.82 to 6.00 | CC[C@@H]1[C@@H](NC(=O)c2ccn(C)n2)[C@H](Cc2ccccc2)C(=O)N1c1ccc2c(cnn2-c2ccc(F)cc2)c1 (racemic) [Example 104, N-[rac-(2R,3S,4S)-4-Benzyl-2-ethyl-1-[1-(4-fluorophenyl)-1H-indazol-5-yl]-5-oxo-pyrrolidin-3-yl]-1-methyl-1H-pyrazole-3-carboxylic acid amide]
4.82 to 6.00 | CC[C@@H]1[C@@H](NC(=O)C(C)(F)F)[C@H](Cc2ccccc2)C(=O)N1c1ccc2c(cnn2-c2ccc(F)cc2)c1 (racemic) [Example 107, N-[rac-(2R,3S,4S)-4-Benzyl-2-ethyl-1-[1-(4-fluorophenyl)-1H-indazol-5-yl]-5-oxo-pyrrolidin-3-yl]-2,2-difluoro-propionamide]
> 7.00 | C[C@@H]1C(=O)N(c2ccc3c(cnn3-c3ccc(F)cc3)c2)[C@H](c2ccc(Cl)s2)[C@H]1NC(=O)c1ccn(C)n1 (racemic) [Example 110, N-[rac-(2S,3S,4S)-2-(5-Chloro-thiophen-2-yl)-1-[1-(4-fluorophenyl)-1H-indazol-5-yl]-4-methyl-5-oxo-pyrrolidin-3-yl]-1-methyl-1H-pyrazole-3-carboxylic acid amide]
> 7.00 | C[C@@H]1C(=O)N(c2ccc3c(cnn3-c3ccc(F)cc3)c2)[C@H](c2ccc(Cl)s2)[C@H]1NC(=O)c1cccnc1 (racemic) [Example 111, N-[rac-(2S,3S,4S)-2-(5-Chloro-thiophen-2-yl)-1-[1-(4-fluorophenyl)-1H-indazol-5-yl]-4-methyl-5-oxo-pyrrolidin-3-yl]-pyridine-3-carboxylic acid amide]
